The text below walks through data of ChEMBL document CHEMBL5104093, “A comprehensive review on β-lapachone: Mechanisms, structural modifications, and therapeutic potentials” (Eur J Med Chem, 2021).

SMILES strings stand for the structures. Values after ≈ are worked out from the molar mass of the structure shown.

Usually IC50 stands for the concentration at which inhibition is half-maximal. By inhibition in vivo is commonly meant the change of the read-out against control, counted positive when it falls. The term MBC denotes the smallest concentration meeting the test's criterion for killing. In general, MIC refers to the least concentration at which growth counts as inhibited. The term bioavailability denotes the share of a dose that reaches the circulation, judged against a reference dose that is usually intravenous.

Data set [1] concerns HCT-116. Briefly: Cytotoxicity against human HCT-116 cells assessed as reduction in cell viability incubated for 72 hrs by MTT assay. The class given is functional, cell-based. The settings on record: HCT-116, 72 h. (In general: Formazan colour is commonly taken as a measure of viable cells.)
The subject of data set [2] is HL-60. Briefly: Cytotoxicity against human HL-60 cells assessed as reduction in cell viability incubated for 72 hrs by MTT assay. Type of data set: functional, cell-based. The settings on record: HL-60, 72 h.
The next data set relates to NCI-H1975. Briefly: Cytotoxicity against human NCI-H1975 cells assessed as reduction in cell viability incubated for 72 hrs by MTT assay. The class given is functional, cell-based. The note with it: NCI-H1975, 72 h.
For the next data set, the system named is SF-295. Put plainly: Cytotoxicity against human SF-295 cells assessed as reduction in cell viability incubated for 72 hrs by MTT assay. Type of data set: functional, cell-based. The settings on record: SF-295, 72 h.
In the next data set the test system is Plasmodium berghei. Briefly: Antiplasmodial activity against Plasmodium berghei infected in Swiss mouse assessed as reduction in parasite growth at 200 mg/kg, sc administered for 7 days. Type of data set: functional. The note with it: 168 h, time 7 day.
A short description of data set [3]: Selectivity index, ratio of IC50 for human L02 cells to IC50 for human HepG2 cells. Type of data set: toxicity. The settings on record: L02 cells versus HepG2 cells, read-out: Ratio IC50.
Data set [4] relates to HepG2. Briefly: Cytotoxicity against human HepG2 cells assessed as reduction in cell viability incubated for 72 hrs by MTT assay. The class given is functional, cell-based. The settings on record: HepG2, 72 h.
For another data set, the system named is CCRF-CEM. Briefly: Cytotoxicity against human CEM cells assessed as reduction in cell viability incubated for 72 hrs by MTT assay. The class given is functional, cell-based.
The test system of data set [5] is HL-60. Put plainly: Cytotoxicity against human HL-60 cells assessed as reduction in cell viability incubated for 72 hrs by alamar blue assay. Type of data set: functional, cell-based. The note with it: HL-60, 72 h. Background: Resazurin is reduced to fluorescent resorufin, in cell work by metabolically active cells.
The subject of the next data set is UACC-62. Put plainly: Cytotoxicity against human UACC-62 cells assessed as reduction in cell viability incubated for 72 hrs by MTT assay. Type of data set: functional, cell-based. The note with it: UACC-62, 72 h.
A further data set concerns SW-620. Put plainly: Cytotoxicity against human SW-620 cells assessed as reduction in cell viability incubated for 72 hrs by MTT assay. Type of data set: functional, cell-based. The note with it: SW-620, 72 h.
The subject of another data set is HCT-15. Briefly: Cytotoxicity against human HCT-15 cells assessed as reduction in cell viability incubated for 72 hrs by MTT assay. The note with it: HCT-15, 72 h. The class given is functional, cell-based.
In a further data set the test system is MDA-MB-435. Put plainly: Cytotoxicity against human MDA-MB-435 cells assessed as reduction in cell viability incubated for 72 hrs by MTT assay. The class given is functional, cell-based. The settings on record: MDA-MB-435, 72 h.
A further data set concerns COLO 205. Put plainly: Cytotoxicity against human COLO 205 cells assessed as reduction in cell viability incubated for 72 hrs by MTT assay. The class given is functional, cell-based. The settings on record: COLO 205, 72 h.
In the next data set the test system is PC-3. Put plainly: Cytotoxicity against human PC-3 cells assessed as reduction in cell viability incubated for 72 hrs by MTT assay. Type of data set: functional, cell-based. The settings on record: PC-3, 72 h.
In the next data set the test system is HCT-8. Briefly: Cytotoxicity against human HCT-8 cells assessed as reduction in cell viability incubated for 72 hrs by MTT assay. The class given is functional, cell-based. The settings on record: HCT-8, 72 h.
The subject of another data set is MOLT-4. Briefly: Cytotoxicity against human MOLT-4 cells assessed as reduction in cell viability incubated for 72 hrs by MTT assay. Type of data set: functional, cell-based. The settings on record: MOLT-4, 72 h.
A further data set deals with OVCAR-8. Put plainly: Cytotoxicity against human OVCAR-8 cells assessed as reduction in cell viability incubated for 72 hrs by MTT assay. The class given is functional, cell-based. The settings on record: OVCAR-8, 72 h.
For a further data set, the system named is MDA-MB-231. Put plainly: Cytotoxicity against human MDA-MB-231 cells assessed as reduction in cell viability incubated for 72 hrs by MTT assay. The settings on record: MDA-MB-231, 72 h. The class given is functional, cell-based.
The test system of the next data set is NCI-H358. Put plainly: Cytotoxicity against human NCI-H358 cells assessed as reduction in cell viability incubated for 72 hrs by MTT assay. The class given is functional, cell-based. The settings on record: NCI-H358, 72 h.
For another data set, the system named is K562. Briefly: Cytotoxicity against human K562 cells assessed as reduction in cell viability incubated for 72 hrs by MTT assay. Type of data set: functional, cell-based. The settings on record: K562, 72 h.
The subject of the next data set is MX1. Put plainly: Cytotoxicity against human MX1 cells assessed as reduction in cell viability incubated for 72 hrs by MTT assay. The note with it: MX1, 72 h. The class given is functional, cell-based.
A further data set has as its system Hs-578T. Briefly: Cytotoxicity against human Hs-578T cells assessed as reduction in cell viability incubated for 72 hrs by MTT assay. Type of data set: functional, cell-based.
The subject of another data set is DU-145. Briefly: Cytotoxicity against human DU-145 cells assessed as reduction in cell viability incubated for 72 hrs by MTT assay. The class given is functional, cell-based. The settings on record: DU-145, 72 h.
A further data set has as its system MCF7. Put plainly: Cytotoxicity against human MCF7 cells assessed as reduction in cell viability incubated for 72 hrs by MTT assay. The note with it: MCF7, 72 h. Type of data set: functional, cell-based.
The subject of data set [6] is Staphylococcus epidermidis. Put plainly: Antibacterial activity against Methicillin-resistant Staphylococcus epidermidis clinical isolates assessed as bacterial growth inhibition incubated for 24 hrs by Mueller-Hinton broth based assay. Type of data set: functional.
The subject of data set [7] is Staphylococcus haemolyticus. Put plainly: Antibacterial activity against Methicillin-resistant Staphylococcus haemolyticus clinical isolates assessed as bacterial growth inhibition incubated for 24 hrs by Mueller-Hinton broth based assay. Type of data set: functional.
The subject of data set [8] is Staphylococcus aureus. Briefly: Antibacterial activity against Methicillin-resistant Staphylococcus aureus ATCC 33591 assessed as bacterial growth inhibition incubated for 24 hrs by Mueller-Hinton broth based assay. The class given is functional.
Data set [9] deals with Staphylococcus aureus. Put plainly: Antibacterial activity against Methicillin-resistant Staphylococcus aureus ATCC 29213 assessed as bacterial growth inhibition incubated for 24 hrs by Mueller-Hinton broth based assay. The class given is functional.
A short description of data set [10]: Cytotoxicity against African green monkey BSC40 cells assessed as viable cells incubated for 24 hrs by Neutral red dye based spectrophotometer analysis. The note with it: chlorocebus aethiops, bsc40, 24 h. The class given is toxicity, cell-based.
Data set [11] has as its system HCT-116. Put plainly: Cytotoxicity against human HCT-116 cells assessed as reduction in cell viability incubated for 48 hrs by MTT assay. The note with it: HCT-116, 48 h. The class given is functional, cell-based.
Data set [12] relates to HepG2. Briefly: Cytotoxicity against human HepG2 cells assessed as reduction in cell viability incubated for 48 hrs by MTT assay. The class given is functional, cell-based. The note with it: HepG2, 48 h.
A short description of data set [13]: Elimination half life in human at 1.5 mg/kg, iv. The class given is ADME, organism-based. The note with it: in vivo, read-out: beta t1/2 (converted).
A short description of data set [14]: Oral bioavailability in human at 40 mg/kg. The class given is ADME, organism-based. The settings on record: in vivo.
Data set [15] in a line: Volume of distribution at steady state in human. The class given is ADME.
Data set [16] can be described thus: Clearance in human. Type of data set: ADME.
Data set [17] is described as follows: Selectivity index, ratio of IC50 for human PBMC cells to IC50 for human HL-60 cells. The settings on record: PBMC cells versus HL-60 cells, read-out: Ratio IC50. Type of data set: toxicity.
The subject of the next data set is Trypanosoma cruzi. Put plainly: Antitrypanosomal activity against bloodstream form of Trypanosoma cruzi Y trypomastigotes infected in albino mouse assessed as reduction in viable parasite in blood incubated for 24 hrs by Neubauer counting chamber method. Type of data set: functional, organism-based.

Regarding `CC1(C)CCC2=C(O1)c1ccccc1/C(=N/O)C2=O`, the IC50 in the data set on HCT-116 [1] was 2620 nM; in the data set on HL-60 [2], 3840 nM; with NCI-H1975 it was 2620 nM; in the data set with SF-295 it was 3470 nM.
Take `CC1(C)Oc2c(c3nc4ccccc4nc3c3ccccc23)CC1S(=O)(=O)O` (stereo not drawn): the inhibition in vivo at 200 mg/kg in the data set with Plasmodium berghei is 98%.
Regarding `O=C1C(=O)c2ccccc2C2=C1C1(C(=O)Nc3ccc(F)cc31)N1NN=NC1=N2` (stereo not drawn), the selectivity ratio in data set [3] was determined as 20.6. Besides, the IC50 in the data set with HepG2 [4] was determined as 2860 nM.
As for `CC1(C)OC2=C(C(=O)C(=O)c3ccccc32)C1n1cc(-c2ccc(Nc3ccccn3)c3nsnc23)nn1` (stereo not drawn), the IC50 in the data set on CCRF-CEM, in the data set with HL-60 [5], with UACC-62, in the data set on SW-620, with HCT-15 and in the data set on MDA-MB-435 was 480 nM throughout. Further, the IC50 in the data set with COLO 205, in the data set on PC-3, in the data set with HCT-8, in the data set with MOLT-4, with OVCAR-8 and in the data set on MDA-MB-231 was 480 nM each time. Moreover, the IC50 in the data set with NCI-H358, in the data set with K562, in the data set on SF-295, with MX1, in the data set on Hs-578T and in the data set with DU-145 was 480 nM in each case. The IC50 in the data set with MCF7 was 480 nM.
As to `CC1(C)OC2=C(C(=O)C(=O)c3ccccc32)C1O` (stereo not drawn), the MBC (in data set [6]; in data set [7]; in the data set with Staphylococcus aureus [8]; in the data set on Staphylococcus aureus [9]) was above 512 µg/mL each time. The MIC (in data set [6]; in [7]; in the data set on Staphylococcus aureus [8]; in the data set with Staphylococcus aureus [9]) was 4 µg/mL (≈ 16.4 µM) in each case. Besides, the MTC in [10] worked out at 2 µg/mL.
With `COc1cc(OC)cc(C2C3=C(N=C4N=NNN42)c2ccccc2C(=O)C3=O)c1` (stereo not drawn), the results for the IC50 in the data set with HCT-116 [11] and with HepG2 [12] were 220 nM and 1180 nM, respectively.
Turning to `CC1(C)CCC2=C(O1)c1ccccc1C(=O)C2=O` [LAPACHONE], the half-life in data set [13] is 2.45 h. This compound also gave a bioavailability in data set [14] of 15.5%. For the same compound, the Vdss in data set [15] came out at 490 L/m2. Also, in data set [16], the CL turned out to be 114 L/hr/m2. In addition, the selectivity ratio in data set [17] was found to be 827. In addition, the IC50 in the data set on Trypanosoma cruzi was found to be 392000 nM.
